From patent US20220226280A1, “COMPOSITIONS AND METHODS FOR INCREASED GLUCOSE UPTAKE AND FAT METABOLISM” (Board of Supervisors of Louisiana State University and …, priority 2017, published 2022)
Read-outs that look alike come from different tables or passages of the source.

Key:
[1] = tested on: UCP1 mRNA; assay: UCP1 mRNA induction in differentiated human adipocytes (Taqman RT-PCR); assay type: cell-based; conditions: for UCP1 expression in comparison with flavonoid alone: flavonoid 5 μM combined with 20 μM menthol, 7 day treatment
Description: (§1) Gene expression was analyzed using Taqman RT-PCR and values are expressed as fold increase over untreated controls (n=5).
Gene expression was analyzed using Taqman RT-PCR and values are expressed as fold increase over untreated controls.
To determine the lowest concentrations with efficacy to induce UCP1 mRNA in human adipocytes over a 7 day time period, cells were treated with multiple concentrations of menthol combined with naringenin at 5 μM (FIG. 6).

[2] = tested on: GLUT4 mRNA; assay: GLUT4 mRNA induction in differentiated human adipocytes (Taqman RT-PCR); assay type: cell-based; conditions: human subcutaneous adipocyte cultures
Description: as §1
Gene expression was analyzed using Taqman RT-PCR and values are expressed as fold increase over untreated controls. Naringenin and Menthol v. Control: p=0.008, Naringenin and Menthol v. Naringenin: p=0.01. Naringenin and Menthol v. Menthol: p<0.001, Naringenin v. Control: p>0.05, Menthol v. Control: p>0.05.
(§2) UCP1 mRNA levels increased 4-8 fold in human subcutaneous adipocytes treated from 4-7 days with Naringenin at a concentration of 10 μM, the Cmax detected in human plasma after intake of citrus beverages (FIG. 1) (Kanaze, F. I., et al., Eur J Clin Nutr, 2007 61(4):472-7).

[3] = tested on: carnitine palmitoyltransferase 1 (CPT-1); assay: CPT-1 induction in human subcutaneous adipocyte cultures; assay type: cell-based
Description: as §1, §2

[4] = tested on: Pgc-1α; assay: Pgc-1α expression in human subcutaneous adipocytes; assay type: cell-based; conditions: Naringenin 10 μM
Description: as §1, §2

[5] = tested on: TRPM8 receptor; assay: TRPM8 receptor expression in human adipocytes; assay type: cell-based; conditions: 10 μM Naringenin alone
[6] = tested on: HEK293 cells; conditions: cited from earlier work
[7] = cited from earlier work
[8] = cited from earlier work; remark: listed apart in the source
[9] = target: TRPM8 (Homo sapiens, UniProt Q7Z2W7); conditions: cited from earlier work
Sequence of TRPM8 (Q7Z2W7 whole entry, species assumed): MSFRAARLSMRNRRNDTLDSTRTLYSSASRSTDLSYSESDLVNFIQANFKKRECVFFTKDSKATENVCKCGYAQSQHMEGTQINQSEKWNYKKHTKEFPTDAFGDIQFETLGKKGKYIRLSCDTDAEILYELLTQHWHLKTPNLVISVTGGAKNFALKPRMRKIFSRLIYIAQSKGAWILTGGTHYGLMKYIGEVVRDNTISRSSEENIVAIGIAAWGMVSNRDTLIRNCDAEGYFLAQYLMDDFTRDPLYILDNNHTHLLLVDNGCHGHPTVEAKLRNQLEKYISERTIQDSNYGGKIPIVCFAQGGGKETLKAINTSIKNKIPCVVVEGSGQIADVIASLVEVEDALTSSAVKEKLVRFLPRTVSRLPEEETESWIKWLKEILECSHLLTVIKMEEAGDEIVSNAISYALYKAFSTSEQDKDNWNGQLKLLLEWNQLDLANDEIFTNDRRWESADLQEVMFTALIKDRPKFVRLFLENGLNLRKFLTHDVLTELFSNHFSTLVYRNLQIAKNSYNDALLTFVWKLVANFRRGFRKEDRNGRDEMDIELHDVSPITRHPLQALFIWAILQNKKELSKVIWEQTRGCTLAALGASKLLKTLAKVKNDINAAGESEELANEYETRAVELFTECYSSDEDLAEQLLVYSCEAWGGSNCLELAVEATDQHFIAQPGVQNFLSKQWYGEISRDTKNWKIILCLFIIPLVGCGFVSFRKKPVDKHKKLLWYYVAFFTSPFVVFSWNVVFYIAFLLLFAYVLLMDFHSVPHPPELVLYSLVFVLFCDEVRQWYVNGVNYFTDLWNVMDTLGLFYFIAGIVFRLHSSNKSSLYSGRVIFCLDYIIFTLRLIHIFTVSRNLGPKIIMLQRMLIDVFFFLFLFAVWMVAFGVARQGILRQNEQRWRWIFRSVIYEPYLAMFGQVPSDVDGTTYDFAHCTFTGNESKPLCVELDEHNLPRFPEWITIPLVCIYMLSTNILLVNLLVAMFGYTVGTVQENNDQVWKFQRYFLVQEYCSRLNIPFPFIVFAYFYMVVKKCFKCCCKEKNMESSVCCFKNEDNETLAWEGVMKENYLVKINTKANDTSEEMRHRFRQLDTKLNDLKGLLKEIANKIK

[10] = tested on: UCP1 expression; conditions: cited from earlier work
[11] = tested on: Ucp1 expression; conditions: brown adipocytes from mice; cited from earlier work

For `O=C1C[C@@H](c2ccc(O)cc2)Oc2cc(O)cc(O)c21` (stereo in doubt) [Naringenin, 2,3-dihydro-5,7-dihydroxy-2-(4-hydroxyphenyl)-4H-1-benzopyran-4-one], the “UCP1 mRNA levels increased” value ([1]; Naringenin 10 μM, 4-7 days, human subcutaneous adipocytes) was 4-8 fold, the “induction of brown adipocyte marker UCP1” value ([1]; human subcutaneous adipocyte cultures) was “significantly induces” and the “induction of brown adipocyte marker GLUT4” value [2] was “significantly induces”. The “induction of brown adipocyte marker CPT-1” value [3] was “significantly induces”, the “increase in transcriptional activator Pgc-1α” value [4] was “No increases were observed” and the “increase in TRPM8 receptor expression” value [5] was 4 fold. For the same compound, the “toxicity to cells (maximum concentration)” value [6] was 12.5 µM, the Cmax ([7]; human plasma/serum after intake of citrus beverages, read-out: Cmax) was 10 µM and the solubility ([8]; aqueous solutions) was “sparingly soluble”. The solubility ([8]; ethanol, ether, oils (e.g., olive oil or citrus oil) and supercritical carbon dioxide) was “soluble”.

In the case of `CC12CCC(CC1)C(C)(C)O2` [Eucalyptol], the “UCP1 mRNA expression versus naringenin alone” value ([1]; eucalyptol at 100 μM and 200 μM in combination with Naringenin 5 μM, 7 d) is reported as “did not increase UCP1 mRNA expression above the level observed with naringenin alone”.

With `COc1ccc([C@@H]2CC(=O)c3c(O)cc(O)cc3O2)cc1O` [Hesperetin] the “UCP1 expression in comparison with flavonoid alone” value (“UCP1 expression in comparison” for short) [1] was “No statistical difference”.

In the case of `O=C1NC(c2cccc([N+](=O)[O-])c2)=CCN1c1ccccc1O` [Icilin], the “synergy for UCP1 mRNA induction” value ([1]; 0.5 μM icilin combined with Naringenin 5 μM, 7 d) is listed as “did not display synergy”, the EC50 ([9]; TRPM8 activator) is listed as roughly 500 nM and the “potency relative to menthol” value [9] is listed as “at least 100 fold”.

In the case of `CC1CCC(C(C)C)C(O)C1` (stereo not drawn) [Menthol], the “induction of UCP1 or other beige markers” value ([1]; Menthol alone, human adipocyte cultures) is listed as “No induction”, the “increase in UCP1 expression” value ([10]; Menthol 100 μM overnight) is listed as 1.5 fold and the “increase in UCP1 expression” value ([10]; Menthol 100 μM, cells exposed to 26° C.) is listed as 40 fold. For the same compound, the Ucp1 expression [11] was “concentration-dependent increase”, the Cmax ([7]; menthol, read-out: Cmax) was 20 µM and the Cmax ([7]; menthol, read-out: high end of serum Cmax) was 30 µM.

With `COc1cc(CN(CCN)C(=O)OC(C)c2ccccc2)ccc1OCc1ccccc1` (stereo not drawn) [PBMC] the “Naringenin-stimulated UCP1 expression in presence of inhibitor” value ([1]; inhibitor during 5 μM Naringenin treatment for 3 days) was “prevented Naringenin-stimulated UCP1 expression”.

With `O=c1cc(-c2ccc(O)cc2)oc2cc(O)cc(O)c12` [apigenin] the “UCP1 expression in comparison” value [1] was “No statistical difference”.

In the case of `O=c1c(O)c(-c2ccc(O)c(O)c2)oc2cc(O)cc(O)c12` [quercetin], the “UCP1 expression in comparison” value [1] is reported as “No statistical difference”.
